Here are results for 8 compounds from ChEMBL document CHEMBL1201862, “PubChem BioAssay data set” (2004).

Where “and” joins values, the source holds several entries; their conditions need not be identical. Equal values may be shown once. Calls of active or inactive are those of the source. Where only a bound is given, the exact number is not on record here.

One test relates to CHO-K1. In words: Counterscreen for antagonists of the orexin 1 receptor (OX1R; HCRTR1): Homogeneous time resolved fluorescence (HTRF)-based cell-based dose response assay to identify antagonists of the parental CHO-K1 cell line. [Related pubchem assays (depositor defined):AID434989, AID435008, AID463079, AID485270, AID492963, AID492964, AID492965, AID493232, AID504699, AID504701]. Format: functional. The following applies: Cricetulus griseus.

Test [1] addresses T1, Orexin/Hypocretin receptor type 1 (Homo sapiens, UniProt O43613). In words: Fluorescence-based cell-based high throughput dose response assay for antagonists of the orexin 1 receptor (OX1R; HCRTR1). [Related pubchem assays (depositor defined):AID434989, AID435008, AID463079, AID485270, AID492963, AID492964, AID492965, AID493232, AID504717, AID504718]. It is filed as functional.

For test [2], the target named is T1, Orexin/Hypocretin receptor type 1. In words: Homogeneous Time Resolved Fluorescence (HTRF)-based cell-based high throughput dose response assay for antagonists of the orexin 1 receptor (OX1R; HCRTR1). [Related pubchem assays (depositor defined):AID434989, AID435008, AID463079, AID485270, AID492963, AID492964, AID492965, AID493232, AID504717, AID504718]. Format: functional.

Test [3] deals with T2, Orexin receptor type 2 (Homo sapiens, UniProt O43614). In words: Counterscreen assay for antagonists of the orexin 1 receptor (OX1R; HCRTR1): Homogeneous Time Resolved Fluorescence (HTRF)-based cell-based dose response assay for antagonists of the orexin 2 receptor (OX2R; HCRTR2), run by assay provider. Format: functional.
Test [4] deals with T2, Orexin receptor type 2. Put plainly: Counterscreen assay for antagonists of the orexin 1 receptor (OX1R; HCRTR1): Fluorescence-based cell-based dose response assay for antagonists of the orexin 2 receptor (OX2R; HCRTR2), run by assay provider. Format: functional.
Test [5] in a line: Counterscreen for antagonists of the orexin 1 receptor (OX1R; HCRTR1): Fluorescence-based cell-based high throughput dose response assay to identify antagonists of the parental CHO cell line. [Related pubchem assays (depositor defined):AID434989, AID435008, AID463079, AID485270, AID492963, AID492964, AID492965, AID493232, AID504699, AID504701]. It is filed as functional.
Test [6] can be described thus: A Cell Based Secondary Assay to Explore Cytotoxicity in THP-1 Cells of Compounds that Modulate Mycobacterium tuberculosis in Media Containing Glycerol versus Media without Glycerol (2). Format: functional.
For a further test, the system named is Streptococcus. In words: GAS UMAA2166 growth inhibition – luminescence, BacTiterGlo, counter-screen for streptokinase expression inhibitor project, dose response (AID 1915).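 Further: potency for reduction of bacterial viability or growth.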 Format: functional, organism-based.
The next test concerns the target T3, Streptokinase A (Streptococcus pyogenes serotype M1, UniProt P10520).
T3 sequence (P10520 whole entry): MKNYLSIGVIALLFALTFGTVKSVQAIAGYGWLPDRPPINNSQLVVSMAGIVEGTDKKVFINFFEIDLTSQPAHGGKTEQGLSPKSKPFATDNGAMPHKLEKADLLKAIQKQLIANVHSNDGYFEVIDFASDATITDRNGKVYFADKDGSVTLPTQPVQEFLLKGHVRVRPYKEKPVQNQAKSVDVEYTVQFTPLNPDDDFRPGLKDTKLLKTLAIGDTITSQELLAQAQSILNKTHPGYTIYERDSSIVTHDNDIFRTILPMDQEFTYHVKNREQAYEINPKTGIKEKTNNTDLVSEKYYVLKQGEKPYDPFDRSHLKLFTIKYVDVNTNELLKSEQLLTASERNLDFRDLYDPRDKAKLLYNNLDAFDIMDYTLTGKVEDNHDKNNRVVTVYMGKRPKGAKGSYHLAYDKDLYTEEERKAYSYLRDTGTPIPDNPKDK
In words: viability-normalized secreted streptokinase activity reduction – plasminogen activation absorbance, OD405, dose response (AID 1914).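 Further: secreted streptokinase activity via plasminogen activation per viability signal from cell pellet.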 It is filed as functional, Streptococcus pyogenes M1 GAS.

Test [7] has as its system Streptococcus sp. 'group A'. Put plainly: Streptococcus pyogenes SK(-)GAS viability under kanamycin – luminescence, BacTiterGlo, confirmation, counter-screen for streptokinase expression inhibitor project, dose response (AID 1900). Format: functional, organism-based.
A short description of test [8]: Vero E6 cell cytotoxicity, dose response, cytotoxicity control for non-replicating M. tuberculosis project, secondary assay (AID 492998). Format: functional, VeroE6. The following applies: Vero C1008.
The nature of test [9]: cells. Format: functional.
A further test addresses Beta-galactosidase (Escherichia coli, UniProt Q8VNN2). Put plainly: detection-enzyme interference by beta-gal modulators – biochemical, E. coli enzyme, set 3, artefact control for CCR6 antagonist project, dose response (AID 504712). Format: functional.
Test [10] is described as follows: HepG2 cell cytotoxicity, dose response, cytotoxicity control for non-replicating M. tuberculosis project (AID 489018). Format: functional. The following applies: Mycobacterium tuberculosis.
A short description of test [11]: microbe, parasite or virus in culture. It is filed as functional. The following applies: Mycobacterium tuberculosis.
Test [12] in a line: A Cell Based Secondary Assay to Explore Cytotoxicity in HepG2 Cells of Compounds that Modulate Mycobacterium tuberculosis in Media Containing Glycerol versus Media without Glycerol (2). Format: functional.
For test [13], the target named is C-C chemokine receptor type 6 (Homo sapiens, UniProt P51684). Put plainly: antagonism of CCR6 beta-arrestin recruitment – cell-based, luminescent beta-arrestin readout, dose response (AID 504728). Format: functional.
A short description of test [14]: Vero cell cytotoxicity, cytotoxicity control for M. tuberculosis inhibitor project, purified and synthesized samples, set 3 (AID 504684). Format: functional. The following applies: […].
Test [15] in a line: THP-1 cell cytotoxicity, dose response, cytotoxicity control for non-replicating M. tuberculosis project (AID 489025). It is filed as functional.
Test [16] can be described thus: cells.
The target of another test is Major prion protein (Homo sapiens, UniProt P04156). It is filed as functional, cell-based.
In test [17] the target is Bifunctional protein GlmU (Mycobacterium tuberculosis, UniProt P9WMN3). Put plainly: Inhibitors of Mycobacterial Glucosamine-1-phosphate acetyl transferase (GlmU). Secondary screen. Set-up: species or system Mycobacterium tuberculosis H37Rv.
Test [18] concerns Vero. In words: cells. It is filed as functional, cell-based. The following applies: Chlorocebus sabaeus.
Another test addresses Genome polyprotein (dengue virus type 2, UniProt P29990). Put plainly: flavivirus cap methylation enzyme inhibition – biochemical, confirmation dose response, primary screen (AID 588689). It is filed as functional.
The subject of test [19] is Vero. Put plainly: cells. Format: functional. The following applies: Chlorocebus sabaeus.
Test [20] deals with Vero. In words: viability of Vero cells under compound – cytotoxicity control for flavivirus capping enzyme inhibitors (AID 588742). It is filed as functional. The following applies: Chlorocebus sabaeus.
Test [21] deals with Botulinum neurotoxin type A (Clostridium botulinum (strain Hall / ATCC 3502 / NCTC 13319 / Type A), UniProt P0DPI1). Put plainly: High-throughput multiplex microsphere dose response for inhibitors of toxin protease, specifically Botulinum neurotoxin light chain A protease, compounds from Cherry Pick 01. It is filed as functional. The following applies: read-out: EC50_MICROM.

In test [22] the target is T4, Heat shock factor protein 1 (Mus musculus, UniProt P38532).
T4 sequence (P38532 whole entry): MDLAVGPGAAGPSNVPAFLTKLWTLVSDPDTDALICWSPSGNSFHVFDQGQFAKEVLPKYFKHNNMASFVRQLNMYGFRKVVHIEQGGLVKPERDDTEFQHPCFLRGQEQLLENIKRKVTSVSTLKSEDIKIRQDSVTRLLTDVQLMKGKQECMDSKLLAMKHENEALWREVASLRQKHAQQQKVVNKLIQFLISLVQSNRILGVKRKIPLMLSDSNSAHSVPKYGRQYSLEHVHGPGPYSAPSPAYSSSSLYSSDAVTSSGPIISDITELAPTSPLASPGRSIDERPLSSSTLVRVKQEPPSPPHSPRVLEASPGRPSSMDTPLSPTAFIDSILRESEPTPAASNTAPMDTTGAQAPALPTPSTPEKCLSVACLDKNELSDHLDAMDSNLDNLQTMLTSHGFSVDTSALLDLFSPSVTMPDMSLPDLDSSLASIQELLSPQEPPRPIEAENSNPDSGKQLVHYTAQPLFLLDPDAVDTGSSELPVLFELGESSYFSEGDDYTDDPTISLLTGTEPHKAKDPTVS
Put plainly: enhancement of HSF1-driven luciferase signal – cell-based, NIH3T3, luminescence, dose retest, confirmation (AID 435004).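 Further: stress induced by proteasome inhibitor MG132 added 30 min after compound; luciferase reporter driven by HSF1 response element in NIH3T3 cells; actives raise luminescence as potentiators of the MG132 stress response.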 It is filed as functional.

Another test concerns the target Phospholipase D1 (Homo sapiens, UniProt Q13393). In words: cellular phospholipase D1 inhibition IC50 – cell-based, dose response (AID 602151).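 Further: cellular PLD1 assay in Calu-1 cells stimulated with PMA.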 It is filed as functional.
In a further test the target is Phospholipase D2 (Homo sapiens, UniProt O14939). Put plainly: cellular phospholipase D2 inhibition IC50 – cell-based, dose response (AID 602147).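 Further: cellular assay in HEK293 cells overexpressing GFP-tagged PLD2.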 Format: functional.
Test [23] deals with Glycogen synthase kinase-3 alpha (Homo sapiens, UniProt P49840). In words: Inhibition of Human GSK-3 alpha Activity Measured in Biochemical System Using Microfluidics - 2063-06_Inhibitor_Dose_DryPowder_Activity_Set2. [Related pubchem assays (depositor defined):AID2709].
Test [24] concerns the target Glycogen synthase kinase-3 beta (Homo sapiens, UniProt P49841). Put plainly: Inhibition of Human GSK-3 beta Activity Measured in Biochemical System Using Microfluidics - 2063-05_Inhibitor_Dose_DryPowder_Activity_Set2. [Related pubchem assays (depositor defined):AID2709].
The target in test [25] is Cyclin-dependent kinase 5/CDK5 activator 1 (Homo sapiens, UniProt Q00535). Put plainly: human CDK5 activity blockade – biochemical, microfluidic mobility shift, dry powder, selectivity assay for GSK-3 alpha inhibitor project, dose response (AID 588430).
Test [26] addresses Protein disulfide-isomerase (Homo sapiens, UniProt P07237). Put plainly: inhibition of PDI-driven insulin aggregation – biochemical, turbidity, absorbance, cherry-picked samples, dose response (AID 602350). It is filed as functional.
Test [27] addresses Sphingosine 1-phosphate receptor 2 (Homo sapiens, UniProt O95136). In words: Late-stage fluorescence-based dose-response cell-based counterscreen assay to identify agonists of the Sphingosine 1-Phosphate Receptor 3 (S1P3): Sphingosine 1-Phosphate Receptor 2 (S1P2) agonist assay. It is filed as functional.
For test [28], the target named is T5, Sphingosine 1-phosphate receptor 4 (Homo sapiens, UniProt O95977).
T5 sequence (O95977 whole entry): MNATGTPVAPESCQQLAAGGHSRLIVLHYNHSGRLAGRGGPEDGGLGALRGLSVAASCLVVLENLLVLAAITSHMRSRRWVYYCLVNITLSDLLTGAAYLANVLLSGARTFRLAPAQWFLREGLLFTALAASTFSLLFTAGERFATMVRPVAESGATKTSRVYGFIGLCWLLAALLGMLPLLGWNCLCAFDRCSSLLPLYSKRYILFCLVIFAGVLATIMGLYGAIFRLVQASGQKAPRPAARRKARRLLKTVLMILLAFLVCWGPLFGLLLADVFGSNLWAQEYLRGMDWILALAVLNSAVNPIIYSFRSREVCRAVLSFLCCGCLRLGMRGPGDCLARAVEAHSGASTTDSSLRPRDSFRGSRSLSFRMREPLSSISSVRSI
In words: Late-stage fluorescence-based dose-response cell-based counterscreen assay to identify agonists of the Sphingosine 1-Phosphate Receptor 3 (S1P3): Sphingosine 1-Phosphate Receptor 4 (S1P4) agonist assay. It is filed as functional.

Take `N#CCSc1nc(-c2ccccc2)nc2ccccc12`: the IC50 in the test on CHO-K1 was > 66.3 µM (inactive); in test [1], > 49.8 µM (inactive); in test [2], 2.84 µM (active); on Orexin receptor type 2 [3], > 50 µM (inactive); on Orexin receptor type 2 [4], > 88.8 µM (inactive); in [5] it was > 49.8 µM (inactive).
On to `Cc1nn2c(NCc3ccccn3)cc(C(C)C)nc2c1-c1ccccc1`, for which the CC50 in test [6] was 4.39 µM (active); in [8] it was 15.8 µM (active); in test [10] it was 6.6 µM (active); in test [11], 24.5 µM (active); in test [12] it was 0.46 µM (active); in test [14] it was 11.1 µM (active). In addition, the CC50 in [15] is 9.09 µM (active). Moreover, the EC50 in the test with Streptococcus was 23.2 µM (active); on Streptokinase A, 6.95 µM (active); in test [7] it was 5.57 µM (active). The half-maximal inhibitory concentration (IC50) is 1.51 µM (active) in “cells [9]”, > 66.6 µM (inactive) at Beta-galactosidase and > 66.6 µM (inactive) in test [13].
Turning to `O=c1oc2ccccc2c(O)c1[C@H]1c2ccc(O)cc2Oc2c1c(=O)oc1ccccc21`, the IC50 in the test “cells [16]” was 124 µM (inactive); at Major prion protein, 9.01 µM (active); in test [17] it was 117 µM (active); with Vero [18], > 25 µM (active); at Genome polyprotein, 80.7 µM (active). In addition, the CC50 in the test on Vero [19] is > 25 µM (active); with Vero [20] it was > 40 µM (active).
With `COc1ccc(C2CC(c3cccs3)=NN2c2nc(C)c(C(C)=O)s2)cc1OC` (stereo unspecified), the EC50 in test [21] is 7.9 µM (active) and 4.8 µM (active); in test [22] it was 111 µM (active).
On to `C[C@@H](CN1CCC(n2c(=O)[nH]c3ccccc32)CC1)NC(=O)c1ccc2ncccc2c1`, for which the half-maximal inhibitory concentration (IC50) at Phospholipase D1 is 0.017 µM (active); at Phospholipase D2, 4.1 µM (active).
Regarding `CCCN(CCC)Cc1c(C(=O)N/N=C/c2ccoc2)nnn1-c1nonc1N`, the AC50 in test [23] was 1.24 µM (active); in test [24], 0.457 µM (active); in test [25], 40.6 µM (active).
On to `Cc1noc(C)c1S(=O)(=O)Nc1ccc2c(c1)CC(=O)N([C@H](C)CO)C[C@H](C)[C@@H](CN(C)S(=O)(=O)c1ccc(F)cc1)O2`, for which the AC50 in [26] was 19.5 µM (active).
Take `O=C(c1cc(-c2ccccc2)on1)N(C1CCCCC1)C1CCCC1`: the EC50 in test [27] and in [28] was > 50 µM (inactive) each time.
